Laboratory results reported in US20060183794A1, “Drug composition containing nf-kb inhibitor” (priority 2002, published 2006).

Key:
K562 = experiment: Hoechst staining apoptosis assay, control cell line K562; assay type: cell-based; settings: 10 μg/ml, 72 hours
Description: DHM2EQ was added to the ATL cell lines (MT-1 and TL-Om1) and a control cell line (K562) at a final concentration of 10 μg/ml, followed by incubation for 72 hours. Subsequently, apoptosis was examined by observing nuclear […] or fragmentation on Hoechst staining with a fluorescence microscope. Cells to which the solvent DMSO had been added in equal volume were also examined in the same manner.

[1] = test system: Hodgkin's lymphoma cell lines KMH-2 and L-540; experiment: MTT assay, proliferation of Hodgkin's lymphoma cell lines; assay type: cell-based
Description: Cells from the ATL cell lines (MT-1 and TL-Om1) and a control cell line (K562) were plated in 96-well plates at 1×10^5 cells/well and DHM2EQ was added at the desired final concentrations (2, 5, and 10 μg/ml). Cells to which the solvent DMSO had been added in equal volume (0 μg/ml) were used as […] incubation for 72 hours, cell viability was judged by the MTT assay. Relative MTT values were obtained as the ratio of the MMT values of DHM2EQ-treated cells to those of DHM2EQ-untreated cells, i.e., (MTT values of DHM2EQ-treated cells/MTT values of DHM2EQ-untreated cells)×100(%).
DHM2EQ was added to the ATL cell lines (MT-1 and TL-Om1) and a control cell line (K562) at a final concentration of 10 μg/ml and the cells were incubated for 12, 24, 48, and 72 hours. The proliferation-inhibitory effect was examined by the MTT assay. Cells to which the solvent DMSO had been added in equal volume were used as controls. Relative MTT values were obtained in the same manner as the aforementioned (1).
Time-course analysis and concentration dependence analysis of the inhibitory effect of DHM2EQ on proliferation of Hodgkin's lymphoma cells were performed in the same manner as in Example 2. As Hodgkin's lymphoma cells, the Hodgkin's lymphoma cell lines KMH-2 and L-540 were used.

[2] = Acute toxicity test in ICR mice; assay type: in vivo; settings: mouse, in vivo, intraperitoneal; ICR mice, abdominal cavity, 24 hours; read-out: acute toxicity LD 50
Description: (§1) An acute toxicity test of DHMEQ was performed as follows: DHMEQ was dissolved in one drop of 10% DMSO saline+Tween, administered to the abdominal cavity of ICR mice, and the mortality/survival and status of the mice after 24 hours were investigated.

ICR mice = experiment: Acute toxicity test in ICR mice; assay type: in vivo; settings: ICR mice i.p.
Description: as §1

NF-κB [3] = target: T1, NF-κB (Homo sapiens, UniProt P19838+Q04206); experiment: p6kb-Luc luciferase reporter assay of NF-κB activity in JCA-1 cells; assay type: cell-based; parameters: endogenous in cells; settings: 2.5, 5, 10, 20, 40 μg/ml DHMEQ, 8 hours
Description: To measure the inhibitory effect of DHMEQ on activity of NF-κB, the activity of NF-κB on DHMEQ at various concentrations was measured using transcriptional activity of NF-κB as an index. As the reporter, the vector construct (p6kb-Luc), containing a luciferase gene as the reporter in the downstream of the promoter containing six tandem copies of the NF-κB binding sequence, was used. This reporter plasmid was transfected into JCA-1 cells using GenePOETER™ (Gene Therapy Systems). Fourteen hours after the transfection, 2.5, 5, 10, 20, and 40 μg/ml DHMEQ was added to the cell medium, followed by further incubation for 8 hours. Subsequently, cells were recovered and luciferase activity was measured. […] Each luciferase activity was measured and the absolute value was presented by standardization. All experiments were conducted independently three times, producing averages and standard deviations.
Target sequence in this assay (Q04206 whole entry): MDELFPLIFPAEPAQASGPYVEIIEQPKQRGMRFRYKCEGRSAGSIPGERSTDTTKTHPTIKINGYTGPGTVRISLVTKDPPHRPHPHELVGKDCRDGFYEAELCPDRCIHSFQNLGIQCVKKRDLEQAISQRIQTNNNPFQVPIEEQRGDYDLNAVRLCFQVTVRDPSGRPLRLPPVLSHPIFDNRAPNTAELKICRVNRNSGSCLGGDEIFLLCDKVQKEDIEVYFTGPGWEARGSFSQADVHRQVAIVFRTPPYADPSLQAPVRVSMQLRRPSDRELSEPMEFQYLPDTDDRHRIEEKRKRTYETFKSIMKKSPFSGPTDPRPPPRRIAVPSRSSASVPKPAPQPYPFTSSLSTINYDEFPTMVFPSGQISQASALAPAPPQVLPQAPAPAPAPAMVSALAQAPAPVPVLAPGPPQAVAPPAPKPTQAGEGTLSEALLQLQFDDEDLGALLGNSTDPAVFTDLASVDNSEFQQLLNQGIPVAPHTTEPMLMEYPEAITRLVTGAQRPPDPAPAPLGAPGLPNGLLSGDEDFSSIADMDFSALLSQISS
Target sequence in this assay (P19838 1-433 limits assumed): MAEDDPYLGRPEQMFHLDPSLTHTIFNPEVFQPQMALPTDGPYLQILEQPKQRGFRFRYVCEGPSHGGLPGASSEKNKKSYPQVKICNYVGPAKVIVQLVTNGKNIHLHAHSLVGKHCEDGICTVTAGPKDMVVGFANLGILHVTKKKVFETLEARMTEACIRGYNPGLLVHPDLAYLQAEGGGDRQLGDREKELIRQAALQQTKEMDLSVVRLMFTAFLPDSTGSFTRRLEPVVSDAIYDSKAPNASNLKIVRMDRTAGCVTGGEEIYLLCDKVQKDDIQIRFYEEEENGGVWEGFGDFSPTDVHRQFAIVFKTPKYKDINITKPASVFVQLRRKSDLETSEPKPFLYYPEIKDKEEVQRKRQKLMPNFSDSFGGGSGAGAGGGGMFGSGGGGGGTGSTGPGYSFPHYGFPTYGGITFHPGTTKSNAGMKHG

NF-κB [4] = target: T1, NF-κB; experiment: Gel shift assay of constitutive NF-κB activation in Hodgkin's lymphoma cell lines; assay type: cell-based; parameters: endogenous in cells; host or cells: HL cell lines KMH2, L428, L540, HDLM2 (A30: KMH2 treated with antitumor agents)
Description: The ATL cell lines (MT-1 and TL-Om1) and the control cell lines (K562 and Jurkat+TNF), 2×10^6 cells each, were treated with 10 μg/ml DHM2EQ for 12 hours, and nuclear extract was prepared from each cell line. Likewise, nuclear extract was prepared also from the cell lines not treated with DHM2EQ. MT-1 and TL-Om1 are the cell lines transformed with HTLV-1; NF-κB is activated in these cell lines. K562 (myelocytic leukemia cell line) is a cell line in which constitutive NF-κB is not confirmed (a negative control), and Jurkat+TNF is a […] consensus oligomers (Promega) were end-labeled with [γ-^32P]-ATP and polynucleotide kinase (PNK) to prepare ^32P-labeled NF-κB probes.
The equivalent of 2 μg of nuclear extract protein was mixed with NF-κB probes (the equivalent of 10,000 cpm) in a volume of 20 μl and reacted at room temperature for 30 min. The solution after the reaction was subjected to 7.5% polyacrylamide gel electrophoresis. The gel was then dried and exposed to an X-ray film.
The HL cell lines, KMH2, L428, L540, and HDLM2, and the control cell line K562 (2×10^6 cells each) were treated with 10 μg/ml DHMEQ for 12 hours, and nuclear extract was prepared from each cell line. The gel shift assay was performed in the same method as in Example 4 (1) and the inhibitory effect on NF-κB was examined. […] Cell line K562 (myelocytic leukemia cell line) is a cell line in which constitutive activation of NF-κB is not observed, and thus used as the negative control. On the other hand, the TNF-treated Jurkat (Jurkat+TNF) was used as the positive control.
Next, the HL cell lines KMH2 and L540 were treated with 10 μg/ml DHMEQ and nuclear extract was prepared from each cell line. The gel shift assay was performed in the same method as in Example 4 (1) and the time-course inhibitory effect on NF-κB was examined.
Thus, investigation was performed to determine whether these signals have NF-κB-specific subunits of DHMEQ resistance. Further, the HL cell lines, KMH2, L428L-540, and HDLM2 were treated with 5 μg/ml DHMEQ for 12 hours, and the remaining component of NF-κB was supershifted with antibodies against p50, p65, and c-Rel according to the same method as described in Example 1.
Target sequence in this assay (P19838 1-433 limits assumed): as above
Target sequence in this assay (Q04206 whole entry): as the sequence (Q04206 whole entry) above

NF-κB [5] = target: T1, NF-κB; experiment: Gel shift assay of NF-κB activation by antitumor agents in KMH2 cells; assay type: cell-based; parameters: endogenous in cells; host or cells: HL cell lines KMH2, L428, L540, HDLM2 (A30: KMH2 treated with antitumor agents); settings: camptothecin or daunomycin with concurrent DHMEQ
Target sequence in this assay (P19838 1-433 limits assumed): as the sequence (P19838 1-433 limits assumed) above
Target sequence in this assay (Q04206 whole entry): as the sequence (Q04206 whole entry) above

Compound: O=C(NC1=CC(=O)C2OC2C1O)c1ccccc1O (stereo not drawn) [DHMEQ, 5,6-epoxy-4-hydroxy-3-salicyloylamino-2-cyclohexenone]
- apoptosis (Hoechst staining) (K562): apoptosis was not observed
- cell proliferation, concentration dependence [1]: inhibited in proportion to the DHM2EQ concentrations added
- cell proliferation, time course [1]: inhibited in proportion to the DHM2EQ treatment time
- LD50 at 24 h [2]: 188 mg/kg
- mortality/survival after 24 hours (ICR mice; 5 mg/mouse (about 250 mg/kg)): dead on the day of administration
- mortality/survival after 24 hours (ICR mice; 0.156, 0.313, 0.625, 1.25, or 2.5 mg/mouse): survived
- NF-κB activity (luciferase) in JCA-1 cells (NF-κB [3]): concentration-dependently inhibits
- signals by NF-κB (gel shift) (NF-κB [4]; KMH2, L428, L540, HDLM2, 10 μg/ml, 12 hours): almost lost
- persistence of inhibition of NF-κB activation (NF-κB [4]; KMH2 and L540, 10 μg/ml): sustained even after a lapse of 16 hours
- activation of NF-κB, time course (gel shift) (NF-κB [4]; KMH2 and L540, 10 μg/ml, 1 hour after treatment): almost inhibited
- remaining NF-κB signals after DHMEQ treatment (NF-κB [4]; L428 and KMH2): weak signals remain
- NF-κB induction by antitumor agent (NF-κB [5]): strongly suppressed
